Measurements reported in patent publication US8178506B2, “Oligomeric compounds and compositions for use in modulation of small non-coding RNAs” (Regulus Therapeutics Inc., priority 2003, dated 2012).
“Also recorded” adds a separate entry of the source. In the oligonucleotide strings, read from the 5' end, every base follows the letter of its sugar. An asterisk marks phosphorothioate; unmarked linkages are phosphodiester. Other units and linkages are bracketed, terminal groups are in braces. A string of capitals states the bases alone. e = 2'-O-(2-methoxyethyl) (MOE); [5mC] = 5-methylcytosine; d = 2'-deoxy (DNA)

Tests used:
Format in all cases: cell-based, human
[1] = system: HeLa cells; experiment: Cell cycle assay in HeLa cells; conditions: HeLa cells, 150 nM oligomeric compound; for % cells aneuploid / % cells in cell cycle phase G1 / % cells in cell cycle phase G2/M / % cells in cell cycle phase S / % cells in cell cycle phase subG1: 24 hours, relative to untreated control (UTC = 100); for % cells in cell cycle phase: G1 / % cells in cell cycle phase: G2/M / % cells in cell cycle phase: S / % cells in cell cycle phase: aneuploid / % cells in cell cycle phase: subG1: 48 hours after treatment, relative to untreated control (UTC=100)
[2] = system: T47D cells; experiment: Cell cycle assay in T47D cells; conditions: 150 nM, 48 hours, relative to untreated control
Experimental: BJ cells were routinely cultured in MEM high glucose with 2 mM L-glutamine and Earle's BSS adjusted to contain 1.5 g/L sodium bicarbonate and supplemented with 10% fetal bovine serum, 0.1 mM non-essential amino acids and 1.0 mM sodium pyruvate (all media and supplements from Invitrogen Life Technologies, Carlsbad, Calif.). B16-F10 cells were routinely cultured in DMEM high glucose (Invitrogen Life Technologies, Carlsbad, Calif.) supplemented with 10% fetal bovine serum (Invitrogen Life Technologies, Carlsbad, Calif.). T47D cells were cultured in DMEM High glucose media (Invitrogen Life Technologies, Carlsbad, Calif.) supplemented with 10% fetal bovine serum. […] Cells were plated on collagen-coated 24-well plates (Falcon-Primaria #3047, BD Biosciences, Bedford, Mass.) at approximately 50,000 cells per well and allowed to attach to wells overnight.
(§1) In further studies, additional cell lines were treated with oligomeric compounds targeted against miRNAs to assess the effects of each oligomeric compound on cell cycling. BJ, B16, T47D, and HeLa cells were cultured and transfected as described above. […] T47Dp53 cells are T47D cells that have been transfected with and selected for maintenance of a plasmid that expresses a wildtype copy of the p53 gene (for example, pCMV-p53; Clontech, Palo Alto, Calif.), using standard laboratory procedures. BJ cells were treated with 200 nM of each oligomeric compound, and T47D, T47Dp53, HeLa, and B16 cells were treated with 150 nM of each oligomeric compound. The human foreskin fibroblast BJ cell line represents a non-cancer cell line, while HeLa, T47D, T47Dp53 cells and the mouse melanoma cell line B16-F10 represent cancerous cell lines. For comparison, oligomeric compounds ISIS 183891 (SEQ ID NO: 847) and ISIS 285717 ([…]; herein incorporated as SEQ ID NO: 857), both targeting the kinesin-like 1/Eg5 mRNA, involved in cell cycling, were used as positive controls. The random-mer ISIS 29848 was used as a negative control. Additionally, the oligomeric compounds ISIS Number 25690 ([…]; herein incorporated as SEQ ID NO: 858) and ISIS Number 25691 ([…]; herein incorporated as SEQ ID NO: 859), targeted to nucleotides 3051-3070 and 3085-3104, respectively, of the mRNA encoding the Drosha RNase III (GenBank Accession NM_013235.2, incorporated herein as SEQ ID NO: 860) were also tested. ISIS Number 25690 and ISIS Number 25691 are 5-10-52′-MOE gapmer compounds, 20 nucleotides in length, with phosphorothioate internucleoside linkages throughout the oligomeric compound. All cytidine residues are 5-methylcytidines. Transfections were performed using the methods described herein. Cells were prepared for flow cytometry 48-hours after oligonucleotide treatment. Results of these studies are shown in Table 35, where data are expressed as percentage of cells in each phase relative to the untreated control cells in that phase.

[3] = system: A549 cells; experiment: Cell cycle assay in A549 cells; conditions: A549 cells, 24 hours, relative to the untreated control cells in that phase
Experimental: In accordance with the present invention, certain oligomeric compounds targeting miRNAs were selected for dose response studies. Using the cell cycle assay described above, the cell cycle profiles of HeLa or A549 cells treated with varying concentrations of oligomeric compounds of the present invention were assessed.
Concomittent decreases in the percentage of cells in G1-phase of the cell cycle and increases in the percentage of hypodiploid (subG1) cells were also observed.
In a further study, A549 cells were treated with 25-, 50-, 100- or 150 nM of the oligomeric compounds ISIS Numbers 338637 (SEQ ID NO: 464) targeted against mir-96, and ISIS 338769 (SEQ ID NO: 596) targeted against mir-130b, ISIS 338836 (SEQ ID NO: 663) targeted against mir-23a, and ISIS 340350 (SEQ ID NO: 855) targeted against mir-95 (Mourelatos). Cells treated with increasing concentrations of oligomeric compounds were compared to untreated cells, to assess the dose-responsiveness of the observed delay or arrest. The random-mer ISIS 29848 was used as a negative control. Cells were prepared for flow cytometry 24-hours after oligonucleotide treatment. Results of these dose response studies are shown in Table 34, where data are expressed as percentage of cells in each phase relative to the untreated control cells in that phase.

[4] = system: T47Dp53 cells; experiment: Cell cycle assay in T47Dp53 cells; conditions: 150 nM, 48 hours, relative to untreated control
Experimental: as §1

[5] = system: mir-21 pri-miRNA; experiment: mir-21 pri-miRNA expression in HeLa cells (real-time RT-PCR); conditions: for levels of the mir-21 pri-miRNA molecule: HeLa, 100 nM
Experimental: In one embodiment, the expression of mir-21 (noted to be expressed at high levels in HeLa cells) was assessed in cells treated with oligomeric compounds. Using the transfection methods previously described, HeLa cells were treated with 100 nM of the uniform 2′-MOE oligomeric compound ISIS Number 327917 (SEQ ID NO: 335) targeting the mir-21 mature miRNA. Total RNA was isolated by lysing cells in 1 mL TRIZOL™ (Invitrogen) using the manufacturer's recommended protocols. […] Real-time RT-PCR analysis was also performed on HeLa cells treated with ISIS 327917 using a primer/probe set specific for the mir-21 pri-miRNA molecule [forward primer=ISIS 339332 ([…]; herein incorporated as SEQ ID NO.: 911), reverse primer-ISIS 339333 (TCGACTGGTGTTGCCATGA; herein incorporated as SEQ ID NO.: 912), and probe=ISIS 339334 ([…]; herein incorporated as SEQ ID NO.: 913)]. Total RNA was quantified using RiboGreen™ RNA quantification reagent (Molecular Probes, Inc. Eugene, Oreg.), expression levels observed for the target were normalized to 5.8S rRNA, and values were expressed relative to an untreated control (UTC).
Using the real-time RT-PCR methods, the expression levels of the mir-21 pri-miRNA were compared in HeLa cells treated with this nested series of uniform 2′-MOE oligomeric compounds, targeting and spanning the entire length of the mir-21 pri-miRNA. ISIS Number 358768 (SEQ ID NO: 918) targets a region flanking the predicted 5′ Drosha cleavage site in the mir-21 pri-miRNA. ISIS Number 358777 (SEQ ID NO: 927) targets a region spanning the 3′ Drosha cleavage site in the mir-21 pri-miRNA. ISIS 358779 (SEQ ID NO: 929) targets a region flanking the predicted 3′ Drosha cleavage site in the mir-21 pri-miRNA. Additionally, oligomeric compounds ISIS 327917 (SEQ ID NO: 335), a uniform 2′-MOE compound targeting the mature mir-21 miRNA, and ISIS 345382 ([…]; SEQ ID NO: 335), a 5-10-7 phosphorothioate 2′-MOE gapmer targeting mir-21, were tested for comparison. Oligomeric compound ISIS 327863 ([…]; herein incorporated as SEQ ID NO: 936), a phosphorothioate 5-10-52′-MOE gapmer, was used as scrambled control. […] Total RNA was isolated by lysing cells in 1 mL TRIZOL™ (Invitrogen) using the manufacturer's recommended protocols. real-time RT-PCR analysis was performed using the primer/probe set specific for the mir-21 pri-miRNA molecule [forward primer=ISIS 339332 (SEQ ID NO.: 911), reverse primer-ISIS 339333 (SEQ ID NO.: 912), and probe=ISIS 339334 (SEQ ID NO.: 913)]. Total RNA was quantified using RiboGreen™ RNA quantification reagent (Molecular Probes, Inc. Eugene, Oreg.), expression levels observed for each target were normalized to 5.8S rRNA, and values were expressed relative to the untreated control (UTC). Effects on expression of the mir-21 pri-miRNA molecule resulting from treatment of HeLa cells with these uniform 2′-MOE oligomeric compounds is expressed as a percentage of RNA levels in untreated control cells.

## 328687 (eG*e[5mC]*eT*eT*e[5mC]*d[5mC]*d[5mC]*dA*dG*d[5mC]*dG*dG*d[5mC]*d[5mC]*dT*eA*eT*eA*eG*eT; antisense) [compound 328687]
[1]
  % cells aneuploid: 149%
  % cells in cell cycle phase G1: 80%
  % cells in cell cycle phase G2/M: 131%
  % cells in cell cycle phase S: 98%
  % cells in cell cycle phase subG1: 231%
  % cells in cell cycle phase: G1: 55%
  % cells in cell cycle phase: G2/M: 131%
  % cells in cell cycle phase: S: 174%
  % cells in cell cycle phase: aneuploid: 171%
  % cells in cell cycle phase: subG1: 1119%
[2]
  % cells in cell cycle phase G1: 101%
  % cells in cell cycle phase G2/M: 115%
  % cells in cell cycle phase S: 92%
  % cells in cell cycle phase aneuploid: 169%
  % cells in cell cycle phase subG1: 142%

## 338769 (antisense GCTTCCCAGCGGCCTATAGT; all 2'-MOE, all phosphorothioate, methylation of C not given here) [compound 338769]
[1]
  % cells aneuploid: 133%
  % cells in cell cycle phase G1: 171%
  % cells in cell cycle phase G2/M: 103%
  % cells in cell cycle phase S: 61%
  % cells in cell cycle phase subG1: 188%
  % cells in cell cycle phase: G1: 76%
  % cells in cell cycle phase: G2/M: 149%
  % cells in cell cycle phase: S: 116%
  % cells in cell cycle phase: aneuploid: 194%
  % cells in cell cycle phase: subG1: 482%
[3]; 25 nM
  % cells in cell cycle phase: G1: 101%
  % cells in cell cycle phase: G2/M: 114%
  % cells in cell cycle phase: S: 94%
  % cells in cell cycle phase: aneuploid: 101%
  % cells in cell cycle phase: subG1: 62%
[3]; 50 nM
  % cells in cell cycle phase: G1: 114%
  % cells in cell cycle phase: G2/M: 122%
  % cells in cell cycle phase: S: 81%
  % cells in cell cycle phase: aneuploid: 132%
  % cells in cell cycle phase: subG1: 82%
[3]; 100 nM
  % cells in cell cycle phase: G1: 124%
  % cells in cell cycle phase: G2/M: 113%
  % cells in cell cycle phase: S: 75%
  % cells in cell cycle phase: aneuploid: 157%
  % cells in cell cycle phase: subG1: 130%
[3]; 150 nM
  % cells in cell cycle phase: G1: 117%
  % cells in cell cycle phase: G2/M: 145%
  % cells in cell cycle phase: S: 71%
  % cells in cell cycle phase: aneuploid: 184%
  % cells in cell cycle phase: subG1: 341%
[4]
  % cells in cell cycle phase G1: 103%
  % cells in cell cycle phase G2/M: 123%
  % cells in cell cycle phase S: 87%
  % cells in cell cycle phase aneuploid: 87%
  % cells in cell cycle phase subG1: 116%

## ISIS 358779: uniform 2′-MOE PS; SEQ ID NO: 929; region flanking 3′ Drosha cleavage site of mir-21 pri-miRNA (antisense eG*eG*eT*e[5mC]*eA*eG*eA*eT*eG*eA*eA*eA*eG*eA*eT*eA*e[5mC]*e[5mC]*eA*eA) [uniform 2′-MOE PS; region flanking 3′ Drosha cleavage site of mir-21 pri-miRNA]
[5]
  levels of the mir-21 pri-miRNA molecule: stimulate an increase in levels of the mir-21 pri-miRNA molecule; also recorded: stimulate the greatest increases in expression of the mir-21 pri-miRNA
[5]; HeLa, 25, 50, 100 and 200 nM
  mir-21 pri-miRNA levels, dose response: dose-responsive induction of mir-21 pri-miRNA levels

## ISIS 358780: uniform 2′-MOE PS; targets mir-21 pri-miRNA (antisense eA*eA*e[5mC]*eA*eT*eT*eG*eG*eA*eT*eA*eT*eG*eG*eA*eT*eG*eG*eT*e[5mC])
[5]
  levels of the mir-21 pri-miRNA molecule: stimulate an increase in levels of the mir-21 pri-miRNA molecule

## ISIS 358784: uniform 2′-MOE PS; targets mir-21 pri-miRNA (antisense e[5mC]*eG*eA*e[5mC]*eA*eA*eG*eG*eT*eG*eG*eT*eA*e[5mC]*eA*eG*e[5mC]*e[5mC]*eA*eT)
[5]
  levels of the mir-21 pri-miRNA molecule: stimulate an increase in levels of the mir-21 pri-miRNA molecule

## ISIS 358785: uniform 2′-MOE PS; targets mir-21 pri-miRNA (antisense eG*eA*eA*eA*eG*eA*eT*eA*e[5mC]*e[5mC]*eA*eA*eA*eA*eT*eG*eT*e[5mC]*eA*eG)
[5]
  levels of the mir-21 pri-miRNA molecule: stimulate an increase in levels of the mir-21 pri-miRNA molecule
